Read-outs that look alike come from different tables or passages of the source.
What was measured:
SOS1 = SOS1 (Homo sapiens (Human), UniProt Q07889); assay: Ras-SOS interaction assay (HTRF), K-Ras G13D utilized; assay type: binding
[1] = system: NCI-H1975 (ATCC CRL-5908) cell line comprising an EGFR T790M L858R double mutation; assay: EGFR-SOS cellular inhibition assay (CellTiter-Glo cell proliferation); assay type: cell-based; conditions: Homo sapiens
Method: A CellTiter-Glo (CTG) luminescent based assay (Promega) is used to assess growth of the cells, as a measurement of the ability of the compounds herein to inhibit EGFR signaling in the cells. […] The day after plating, cells are treated with a dilution series (e.g., a 9 point 3-fold dilution series) of the compounds herein (e.g., approximately 125 μL final volume per well).

[2] = system: MIA PaCa-2 cells (K-Ras G12C); assay: Ras-SOS cellular growth inhibition assay (CellTiter-Glo); conditions: Homo sapiens, MIA PaCa-2, 120 h, read-out: IC50 in inhibiting MIA PaCa-2 cell growth
Method: A CellTiter-Glo (CTG) luminescent based assay (Promega) is used to assess growth of the cells, as a measurement of the ability of the compounds herein to inhibit Ras signaling in the cells. […] The day after plating, cells are treated with a dilution series (e.g., a 9 point 3-fold dilution series) of the compounds herein (e.g., approximately 125 μL final volume per well). Cell viability can be monitored (e.g., approximately 5 days later) according to the manufacturer's recommended instructions, where the CellTiter-Glo reagent is added (e.g., approximately 65 μL), vigorously mixed, covered, and placed on a plate shaker (e.g., approximately for 20 min) to ensure sufficient cell lysis prior to assessment of luminescent signal. The IC50 values are determined using the four-parameter fit. The resulting IC50 value is a measurement of the ability of the compounds herein to reduce cell growth of Ras-driven cells as representative tumor cells.

[3] = Mouse oral exposure (% F); assay type: in vivo; conditions: plasma, female CD-1 mice, 10 mg/kg oral vs 2 mg/kg IV, single dosing
Method: A pharmacokinetic profile for a test compound is assessed by single dosing in female CD-1 mice. […] One set of animals is dosed intravenous (IV) with test compound, 2 mg/kg in 20% HP-beta-CD or 20% Captisol, pH adjusted to −5-6 by citric acid at 10 mL/kg. Time of blood sampling is 5 minutes, 15 minutes, 30 minutes, 90 minutes, 360 minutes, and 24 hours following IV dosing. […] Oral dosing solution concentration is 1 mg/mL test compound and 10 mL/kg. Time of blood sampling is 15 minutes, 30 minutes, 90 minutes, 180 minutes, 360 minutes and 24 hours following oral (po) dosing. Blood samples (˜0.1 mL/sample) are collected via submandibular facial vein and placed in tubes containing EDTA-K2 and stored on ice until centrifuged. The blood samples are centrifuged at approximately 6800 g for 6 minutes at 2-8° C. and the resulting plasma is separated and stored frozen at approximately −80° C. Plasma samples are analyzed using an Agilent Technologies 6430 Triple Quad LC/MS system, following the manufacturer instructions. All the analytes are detected with positive-mode electrospray ionization (ES+). […] Based on the time course sampling, an area under the curve is calculated for the oral dose group and the intravenous dose group. Percentage mouse bioavailability is calculated based on equation 6. […]

[4] = K-Ras G13D, read-out: SOS1 IC50
[5] = 120 h, NCI-H1975 cell proliferation, approximately 5 days, read-out: H1975 IC50
[6] = K-Ras G13D, read-out: IC50 value against SOS1
[7] = NCI-H1975, EGFR T790M L858R double mutation, read-out: IC50 in inhibiting growth of NCI-H1975 cell line
[8] = comparative values (Table 3), read-out: SOS1 IC50

SOS1, sequence (Q07889 564-1049): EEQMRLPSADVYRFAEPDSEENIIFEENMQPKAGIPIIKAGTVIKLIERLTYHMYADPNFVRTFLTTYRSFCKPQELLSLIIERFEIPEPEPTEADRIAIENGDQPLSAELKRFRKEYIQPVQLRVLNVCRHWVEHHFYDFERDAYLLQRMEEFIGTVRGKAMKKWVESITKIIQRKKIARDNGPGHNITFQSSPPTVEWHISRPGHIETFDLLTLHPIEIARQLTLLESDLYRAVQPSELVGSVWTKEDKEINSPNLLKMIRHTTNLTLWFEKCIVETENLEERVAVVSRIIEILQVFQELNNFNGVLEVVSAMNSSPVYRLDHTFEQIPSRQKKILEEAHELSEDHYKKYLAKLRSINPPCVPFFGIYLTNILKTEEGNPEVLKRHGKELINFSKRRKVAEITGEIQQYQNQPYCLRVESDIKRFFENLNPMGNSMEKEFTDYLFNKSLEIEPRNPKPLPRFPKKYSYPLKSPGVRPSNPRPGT

SMILES | IC50 (SOS1; [4]) [µM] | IC50 [1, 5] [µM] | IC50 (SOS1; [6]) [µM] | IC50 [1, 7] [µM] | IC50 [2] [µM] | IC50 (SOS1; [8]) [µM] | bioavailability [3] [%] | ring closure, yield of all isomers (from C=CCCCCCn1c(=O)c(C2(C#N)CC2)cc2c(N[C@H](C)c3cccc(C(F)(F)C4CCN(CC=C)CC4)c3)ncnc21, rcm bond, Grubbs II catalyst, DCM, 1.41 mM, 40.0 °C) [%] | ring closure, yield of all isomers (from C=CCCCCn1c(=O)c(C2CCS(=O)(=O)CC2)cc2c(N[C@H](C)c3cccc(C(F)(F)C4CCN(CC=C)CC4)c3)nc(C)nc21, rcm bond, Grubbs II, DCM, 4.48 mM, 25.0 °C, 16.0 h) [%] | ring closure, yield of all isomers (from COc1cc2nc(C)nc(N[C@H](C)c3ccc(-c4ccccc4C=O)s3)c2cc1OCCOCCOCCOCCOCCN, amine bond, NaBH3CN, DCM, 28.4 mM, 25.0 °C, 16.0 h, 2 steps) [%] | ring closure, yield of all isomers (from C[C@@H](Nc1ncnc2c1cc(C1(C#N)CCS(=O)(=O)CC1)c(=O)n2CCCCCCC=O)c1cccc(C(F)(F)C2CCNCC2)c1F, amine bond, NaBH3CN, MeOH, 0.73 mM, 25.0 °C, 16.5 h) [%]
C[C@H]1Nc2ncnc3c2cc(C2(C#N)CC2)c(=O)n3CCCCCC=CCN2CCC(CC2)C(F)(F)c2cccc1c2 |  |  |  |  |  |  |  | 18.5 |  |  | 
Cc1nc2c3cc(C4CCS(=O)(=O)CC4)c(=O)n(c3n1)CCCCC=CCN1CCC(CC1)C(F)(F)c1cccc(c1)[C@@H](C)N2 |  |  |  |  |  |  |  |  | 64.2 |  | 
COc1cc2nc(C)nc3c2cc1OCCOCCOCCOCCOCCNCc1ccccc1C1=CC=C(S1)[C@@H](C)N3 [Compound 56, (R)-5^7-methoxy-5^2,3-dimethyl-6,9,12,15,18-pentaoxa-4,21-diaza-5(4,6)-quinazolina-2(2,5)-thiophena-1(1,2)-benzenacyclodocosaphane] | 0.1 to 5 |  |  |  |  |  |  |  |  | 59.3 | 
Cc1nc2c3cc(C4(C#N)CC4)c(=O)n(c3n1)CCCCCCCN1CCC(CC1)C(F)(F)c1cccc(c1F)[C@@H](C)N2 [Compound 167, 1-((4R)-3^2,2,2-trifluoro-6^2,4-dimethyl-6^7-oxo-6^7,6^8-dihydro-5-aza-6(4,8)-pyrido[2,3-d]pyrimidina-1(4,1)-piperidina-3(1,3)-benzenacyclotridecaphane-6^6-yl)cyclopropane-1-carbonitrile] | < 0.1 | < 1 | < 0.05 | < 0.5 | < 1 |  |  |  |  |  | 
Cc1nc2c3cc(C4CCN(C(C)C)CC4)c(=O)n(c3n1)CCCC/C=C\CN1CCC(CC1)C(F)(F)c1cccc(c1)[C@@H](C)N2 [Compound 175, (4R,Z)-2,2-difluoro-6^6-(1-isopropylpiperidin-4-yl)-6^2,4-dimethyl-6^7,6^8-dihydro-5-aza-6(4,8)-pyrido[2,3-d]pyrimidina-1(4,1)-piperidina-3(1,3)-benzenacyclotridecaphan-11-en-6^7-one] | < 0.1 | < 1 | < 0.05 | < 0.5 | < 1 | 0.008 | ≥ 4 |  |  |  | 

The next lines start with results.

IC50 (SOS1; [4]) [µM] | IC50 [1, 5] [µM] | IC50 (SOS1; [6]) [µM] | IC50 [1, 7] [µM] | IC50 [2] [µM] | IC50 (SOS1; [8]) [µM] | bioavailability [3] [%] | SMILES | ring closure, yield of all isomers (from C=CCCCCCn1c(=O)c(C2(C#N)CC2)cc2c(N[C@H](C)c3cccc(C(F)(F)C4CCN(CC=C)CC4)c3)ncnc21, rcm bond, Grubbs II catalyst, DCM, 1.41 mM, 40.0 °C) [%] | ring closure, yield of all isomers (from C=CCCCCn1c(=O)c(C2CCS(=O)(=O)CC2)cc2c(N[C@H](C)c3cccc(C(F)(F)C4CCN(CC=C)CC4)c3)nc(C)nc21, rcm bond, Grubbs II, DCM, 4.48 mM, 25.0 °C, 16.0 h) [%] | ring closure, yield of all isomers (from COc1cc2nc(C)nc(N[C@H](C)c3ccc(-c4ccccc4C=O)s3)c2cc1OCCOCCOCCOCCOCCN, amine bond, NaBH3CN, DCM, 28.4 mM, 25.0 °C, 16.0 h, 2 steps) [%] | ring closure, yield of all isomers (from C[C@@H](Nc1ncnc2c1cc(C1(C#N)CCS(=O)(=O)CC1)c(=O)n2CCCCCCC=O)c1cccc(C(F)(F)C2CCNCC2)c1F, amine bond, NaBH3CN, MeOH, 0.73 mM, 25.0 °C, 16.5 h) [%]
< 0.1 | < 1 |  |  |  |  |  | C[C@H]1Nc2ncnc3c2cc(C2(C#N)CCS(=O)(=O)CC2)c(=O)n3CCCCCCCN2CCC(CC2)C(F)(F)c2cccc1c2F [Compound 112, 4-((4R)-3^2,2,2-trifluoro-4-methyl-6^7-oxo-6^7,6^8-dihydro-5-aza-6(4,8)-pyrido[2,3-d]pyrimidina-1(4,1)-piperidina-3(1,3)-benzenacyclotridecaphane-6^6-yl)tetrahydro-2H-thiopyran-4-carbonitrile 1,1-dioxide] |  |  |  | 28.2
< 0.1 | < 1 | < 0.05 | < 0.5 | < 1 |  |  | Cc1nc2c3cc(C4(C#N)CC4)c(=O)n(c3n1)CCC/C=C\CN1CCC(CC1)C(F)(F)c1cccc(c1F)[C@@H](C)N2 [Compound 170, 1-((4R,Z)-3^2,2,2-trifluoro-6^2,4-dimethyl-6^7-oxo-6^7,6^8-dihydro-5-aza-6(4,8)-pyrido[2,3-d]pyrimidina-1(4,1)-piperidina-3(1,3)-benzenacyclododecaphan-10-en-6^6-yl)cyclopropane-1-carbonitrile] |  |  |  | 
< 0.1 | < 1 | < 0.05 | < 0.5 | < 1 |  |  | Cc1nc2c3cc(C4(C#N)CC4)c(=O)n(c3n1)CCCCC/C=C\CN1CCC(CC1)C(F)(F)c1cccc(c1)[C@@H](C)N2 [Compound 171, 1-((4R,Z)-2,2-difluoro-6^2,4-dimethyl-6^7-oxo-6^7,6^8-dihydro-5-aza-6(4,8)-pyrido[2,3-d]pyrimidina-1(4,1)-piperidina-3(1,3)-benzenacyclotetradecaphan-12-en-6^6-yl)cyclopropane-1-carbonitrile] |  |  |  | 
< 0.1 | < 1 | < 0.05 | < 0.5 | < 1 |  |  | Cc1nc2c3cc(C4CCS(=O)(=O)CC4)c(=O)n(c3n1)CCCCCCCN1CCC(CC1)C(F)(F)c1cccc(c1)[C@@H](C)N2 [Compound 173, (4R)-6^6-(1,1-dioxidotetrahydro-2H-thiopyran-4-yl)-2,2-difluoro-6^2,4-dimethyl-6^7,6^8-dihydro-5-aza-6(4,8)-pyrido[2,3-d]pyrimidina-1(4,1)-piperidina-3(1,3)-benzenacyclotridecaphan-6^7-one] |  |  |  | 
< 0.1 | < 1 | < 0.05 | < 0.5 | < 1 |  |  | Cc1nc2c3cc(C4CCS(=O)(=O)CC4)c(=O)n(c3n1)CCCC/C=C\CN1CCC(CC1)C(F)(F)c1cccc(c1)[C@@H](C)N2 [Compound 174, (4R,Z)-6^6-(1,1-dioxidotetrahydro-2H-thiopyran-4-yl)-2,2-difluoro-6^2,4-dimethyl-6^7,6^8-dihydro-5-aza-6 (4,8)-pyrido[2,3-d]pyrimidina-1(4,1)-piperidina-3(1,3)-benzenacyclotridecaphan-11-en-6^7-one] |  |  |  | 
< 0.1 | < 1 | < 0.05 | < 0.5 |  | 0.007 | ≥ 4 | C[C@H]1Nc2ncnc3c2cc(C2CCS(=O)(=O)CC2)c(=O)n3CCCOCCCCN2CC(C2)CC(F)(F)c2cccc1c2 [Compound 176, (3R)-1^6-(1,1-dioxidotetrahydro-2H-thiopyran-4-yl)-5,5-difluoro-3-methyl-1^7,1^8-dihydro-12-oxa-2-aza-1(4,8)-pyrido[2,3-d]pyrimidina-7(3,1)-azetidina-4(1,3)-benzenacyclopentadecaphan-1^7-one] |  |  |  | 
